The values below come from ChEMBL document CHEMBL1158164, “2-Deoxy-2,3-didehydro-N-acetylneuraminic acid analogs structurally modified by thiocarbamoylalkyl groups at the C-4 position: Synthesis and biological evaluation as inhibitors of human parainfluenza virus type 1” (Bioorg Med Chem, 2008).

Structures are written as SMILES.

The nature of the test: Inhibition of hPIV1 sialidase. Set-up: species or system Human respirovirus 1.
The molecule `CC(=O)N[C@H]1[C@H]([C@H](O)[C@H](O)CO)OC(C(=O)O)=C[C@@H]1OCC(N)=S` displayed an IC50 of 9 µM. Molecule `CC(=O)N[C@H]1[C@H]([C@H](O)[C@H](O)CO)OC(C(=O)O)=C[C@@H]1OCCC(N)=S` showed an IC50 of 68 µM. For `CC(=O)N[C@H]1[C@H]([C@H](O)[C@H](O)CO)OC(C(=O)O)=C[C@@H]1OCCCC(N)=S`, the IC50 amounted to 102 µM. With `CC(=O)N[C@H]1[C@H]([C@H](O)[C@H](O)CO)OC(C(=O)O)=C[C@@H]1O` [NEU5AC2EN], it took 300 µM to reach half-maximal inhibition (IC50).
